In one assay the test system is cells. Put plainly: cell-penetration of LNPs and intracellular delivery of mRNA. The class given is cell-based. The following applies: LNPs containing the compound as ionizable lipid; compared to a similar composition comprising Dlin-MC3-DMA. How it is done: The inventors determined cell-penetration of the exemplary LNPs and intracellular delivery of mRNA.
More specifically, particles were incubated on cells for 16-24 hrs at 37° C. under 5% CO2 and expression levels were measured. Formulations were compared to Lipofectamine control and to MC3 control, as well as to untreated controls.

In a further assay the test system is BALB/c mouse. Put plainly: in vivo expression distribution of encapsulated mRNA F-LUC (IVIS imaging, ex-vivo tissue analysis). The following applies: intravenous, 13 μg/mouse. The procedure: (§1) The inventors determined the expression distribution of the exemplary LNPs in vivo by assessing expression of the encapsulated mRNA (mRNA F-LUC). The LNPS of the invention encapsulating mRNA F-LUC have been injected intravenously into a BALB/c mouse, at a dosage of 13 μg/mouse (0.52-0.65 mg/kg). In-vivo imaging were done by IVIS imaging. Ex-vivo tissue analysis was done for lung, heart, spleen, kidney, and liver using IVIS. Histology assessment was determined by H&E staining with pathologist report for toxicity. Histology assessment concluded normal morphology without any treatment related pathological changes.
as §1, with “LNPs” for “LNPS”

The next assay deals with lung cells. Briefly: cell-based studies of specificity to lung cells. The following applies: LNPs containing the compound as ionizable lipid; compared to a similar composition comprising Dlin-MC3-DMA.

The structures appear in SMILES notation.

Regarding `CCCCCCCCCOCC(O)CN(CCN(CC(O)COCCCCCCCCC)CC(O)COCCCCCCCCC)CC(O)COCCCCCCCCC` (centres unmarked) [MB-77], the internalization efficiency entry in the assay with cells is “superior internalization efficiency”.
On the same count and under the same terms, the same measure for `CCCCCCCCCCCCOCC(O)CN(CCCCCCCCN(CC(O)COCCCCCCCCCCCC)CC(O)COCCCCCCCCCCCC)CC(O)COCCCCCCCCCC` (centres unmarked) [MB-205]: “superior internalization efficiency”.
In the case of `CCCCCCCCOCC(O)CN(CCCCN(CC(O)COCCCCCCCC)CC(O)COCCCCCCCC)CC(O)COCCCCCCCC` (centres unmarked) [MB-208], the internalization efficiency entry in the assay with cells is reported as “superior internalization efficiency”.
For the molecule `CCCCCCCCOCC(O)CN(CCOCCOCCN(CC(O)COCCCCCCCC)CC(O)COCCCCCCCC)CC(O)COCCCCCCCC` (centres unmarked) [MB-212], the “lung specificity of the LNP” value in the assay on BALB/c mouse was “enhanced lung specificity”. The “specificity to the lung cells” value in the assay with lung cells was “enhanced specificity to the lung cells”. The internalization efficiency entry in the assay with cells is on record as “superior internalization efficiency”.
Take `CCCCCCCCOCC(O)CN(CCCCCCCCN(CC(O)COCCCCCCCC)CC(O)COCCCCCCCC)CC(O)COCCCCCCCC` (centres unmarked) [MB-222]: the “lung specificity of the LNP” value with BALB/c mouse is given as “enhanced lung specificity”. Moreover, the “specificity to the lung cells” value in the assay on lung cells is “enhanced specificity to the lung cells”.
